Measured values as given in patent US10213416B2, “Substituted benzoxazolone derivatives as acid ceramidase inhibitors, and their use as medicaments” (FONDAZIONE ISTITUTO ITALIANO DI TECNOLOGIA, priority 2014, dated 2019).
Entries after “also recorded” stand apart in the source; their conditions may differ. One block for each molecule: values may come before it.

Tests used:
[1] = target: human (hAC) acid ceramidase (Homo sapiens (Human), UniProt Q13510); experiment: Fluorescent-based in vitro assay of acid ceramidase inhibition; assay type: biochemical; conditions: human acid ceramidase-enriched lysosomal lysate from HEK293 cells, fluorogenic probe 5 μM, pH 4.5
Description: To evaluate the potency of the compounds towards acid ceramidase, a fluorescence-based in vitro assay previously described in literature (Bedia C et al., ChemBioChem, 2007, 8, 642-648) was implemented and optimized. This assay is based on a “fluorogenic probe” containing a coumarin group and a sphingoid base moiety (see figure below), which is not fluorescent in itself, but upon enzymatic cleavage by acid ceramidase followed by a chemical transformation liberates the fluorescent molecule umbelliferone (7-hydroxychromen-2-one). By quantifying the generation of umbelliferone using a fluorescence plate-reader, the level of enzymatic activity can be measured, whereby IC50 values of compounds that inhibit this activity can be generated.
Lysosomal lysate, enriched with acid ceramidase, was prepared from a cell line stably expressing human acid ceramidase. In the assay, the fluorogenic probe (or substrate) serves as a ceramide-analogue, which is recognized and hydrolyzed at the amide bond by acid ceramidase from the enriched lysate to yield the fatty acid and coumarinic aminodiol.
A lysosomal human acid ceramidase protein preparation was obtained from HEK293 cells stably expressing acid ceramidase suspended in 20 mM Tris HCl (pH 7.5) with 0.32 M sucrose. The cell solution was sonicated and centrifuged at 800×g for 15 min at 4° C. Supernatants were then centrifuged at 12,000×g for 30 min at 4° C. Pellets were re-suspended in phosphate-buffered saline (PBS) pH 7.4 and subjected to two freeze-thaw cycles at −80° C. The suspension was finally centrifuged at 105,000×g for 1 h at 4° C. and protein concentration was measured in the supernatant with bicinchinonic-acid based protein assay.
The assay was performed in Optiplate 96-wells black plates, with each reaction well containing a mixture of 25 mM sodium acetate buffer pH 4.5 and a fixed amount of protein (2 μg) in a volume of 85 μL. After 30 min of pre-incubation with test compounds (diluted 20× from DMSO stock solutions at different concentrations), the fluorogenic probe was added (diluted 20× from EtOH stock solution, final concentration 5 μM). After incubation for 3 h at 37° C., the reactions were stopped with 50 μl of methanol and 100 μl of a 2.5 mg/mL NaIO4 fresh solution in 100 mM Glycine/NaOH pH 10.6. The plate was incubated at 37° C. for 2 h in the dark and fluorescence intensities were measured at excitation/emission wavelengths of 360/446 nm. Negative control samples consisted of the same incubation mixture in the absence of protein extracts. The IC50 values or percent of inhibition, at the indicated concentration, of selected compounds described in the invention are reported in Table 2.

[2] = test system: MAG-hydrolysing enzymes (monoacylglycerol lipase (MGL), hormone-sensitive lipase (HSL), endothelial lipase); experiment: MAG-hydrolysing activity ex vivo in mouse tissues after systemic administration (LC-MS based assay); conditions: mice, 10 mg-kg-1 intraperitoneal, measured 3 h after injection; brain, liver, fat and heart
Procedure: (§1) Specifically, the compound of Example 1 was tested for its ability to inhibit the hydrolytic degradation of diacylglycerols (DAG) and monoacylglycerols (MAG) in live mice. DAG and MAG hydrolysis is catalyzed by multiple serine lipases, including diacylglycerol lipase (DGL), monoacylglycerol lipase (MGL), hormone-sensitive lipase (HSL), and endothelial lipase. Thus, by monitoring the effects of compound of Example 1 on MAG-hydrolysing activity as well as DAG and MAG levels ex vivo, we gain important information as to the ability of the compound to interfere with those lipases in a physiologically relevant setting.
Specifically, FIG. 1 evidences the effect of Example 1 or vehicle (DMSO) on MGL activity in brain, liver, fat and heart. MAG-hydrolysing activity was measured 3 h after intraperitoneal injection of compound of Example 1 (10 mg-kg-1). Results are expressed as mean±s.e.m. (n=5). […] The levels of MAGs were quantified after 3 hours after intraperitoneal injection of compound of Example 1 (10 mg-kg-1). Specifically, levels of 16:0 MAG, 18:0 MAG, 18:1 MAG, 22:4 MAG, 22:6 MAG were measured in the brain (a); levels of 16:0 MAG, 18:0 MAG, 18:1 MAG, 22:4 MAG were measured in the liver (b), in fat (c) and in the heart (d). Results are expressed as mean±s.e.m. (n=5).
Tissue was homogenized in ice-cold Tris-HCl (50 mM, pH7.5, 10 vol) containing sucrose (0.32 M). […]

[3] = test system: levels of MAGs in brain, liver, fat and heart; experiment: Levels of monoacylglycerols (MAG) in mouse tissues after systemic administration; assay type: in vivo; conditions: mice, 10 mg-kg-1 intraperitoneal, 3 hours after injection
Procedure: as §1
Specifically, FIG. 1 evidences the effect of Example 1 or vehicle (DMSO) on MGL activity in brain, liver, fat and heart. MAG-hydrolysing activity was measured 3 h after intraperitoneal injection of compound of Example 1 (10 mg-kg-1). Results are expressed as mean±s.e.m. (n=5). […] The levels of MAGs were quantified after 3 hours after intraperitoneal injection of compound of Example 1 (10 mg-kg-1). Specifically, levels of 16:0 MAG, 18:0 MAG, 18:1 MAG, 22:4 MAG, 22:6 MAG were measured in the brain (a); levels of 16:0 MAG, 18:0 MAG, 18:1 MAG, 22:4 MAG were measured in the liver (b), in fat (c) and in the heart (d). Results are expressed as mean±s.e.m. (n=5). […]

human (hAC) acid ceramidase, sequence (Q13510 143-395): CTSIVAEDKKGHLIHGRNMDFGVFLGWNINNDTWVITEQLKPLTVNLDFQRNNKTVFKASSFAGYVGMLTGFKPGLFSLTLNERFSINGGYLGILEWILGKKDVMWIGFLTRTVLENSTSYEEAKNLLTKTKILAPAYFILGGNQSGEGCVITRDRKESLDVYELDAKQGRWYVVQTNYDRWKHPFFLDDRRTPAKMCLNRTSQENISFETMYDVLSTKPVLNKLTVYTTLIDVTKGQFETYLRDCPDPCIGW
human (hAC) acid ceramidase, sequence (Q13510 22-142): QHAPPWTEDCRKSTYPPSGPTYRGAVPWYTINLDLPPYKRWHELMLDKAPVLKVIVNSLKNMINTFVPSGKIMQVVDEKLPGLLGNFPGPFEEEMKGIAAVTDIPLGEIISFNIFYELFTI

Compound: COc1ccc(C(=O)c2ccc3c(c2)oc(=O)n3C(=O)NCCCCCc2ccccc2)cc1 [Example 6, 6-(4-methoxybenzoyl)-2-oxo-N-(5-phenylpentyl)-1,3-benzoxazole-3-carboxamide]
- IC50 [1]: 26 ± 3 nM

Compound: O=C(NCCCCCCc1ccccc1)n1c(=O)oc2c(-c3ccc(F)cc3)cccc21 [Example 4, 7-(4-fluorophenyl)-2-oxo-N-(6-phenylhexyl)-1,3-benzoxazole-3-carboxamide]
- IC50 [1]: 125 ± 79 nM

Compound: O=C(NCCCCCCc1ccccc1)n1c(=O)oc2ccc(-c3ccc(C(F)(F)F)cc3)cc21 [Example 3, 2-oxo-N-(6-phenylhexyl)-5-[4-(trifluoromethyl)phenyl]-1,3-benzoxazole-3-carboxamide]
- IC50 [1]: 111 ± 30 nM

Compound: O=C(NCCCCCc1ccccc1)n1c(=O)oc2cc(-c3ccc(F)cc3)ccc21 [Example 1, 6-(4-fluorophenyl)-2-oxo-N-(5-phenylpentyl)-1,3-benzoxazole-3-carboxamide]
- MAG-hydrolysing activity (MGL activity) [2]: lack of effect; also recorded: did not cause inhibition; also recorded: no inhibitory activity
- IC50 [1]: 75 ± 20 nM
- levels of the most representative MAGs (16:0, 18:0, 18:1, 22:4, 22:6 MAG) [3]: lack of effect; also recorded: remained unchanged

Compound: CCCCOCCCNC(=O)n1c(=O)oc2cc(-c3ccc(F)cc3)ccc21 [Example 13, N-(3-butoxypropyl)-6-(4-fluorophenyl)-2-oxo-1,3-benzoxazole-3-carboxamide]
- IC50 [1]: 132 ± 5 nM

More lines, now with the values ahead:

- IC50 [1]: 46 ± 31 nM
Compound: COc1ccc(C(=O)c2ccc3oc(=O)n(C(=O)NCCCCCCc4ccccc4)c3c2)cc1 [Example 8, 5-(4-methoxybenzoyl)-2-oxo-N-(6-phenylhexyl)-1,3-benzoxazole-3-carboxamide]

- IC50 [1]: 240 ± 58 nM
Compound: O=C(NCCCCSc1ccccc1)n1c(=O)oc2ccc(-c3ccc(F)cc3)cc21 [Example 15, 5-(4-fluorophenyl)-2-oxo-N-(4-phenylsulfanylbutyl)-1,3-benzoxazole-3-carboxamide]

- IC50 [1]: 37 nM
Compound: O=C(NCCCCCc1ccccc1)n1c(=O)oc2c(-c3ccc(F)cc3)cc(Cl)cc21 [Example 14, 5-chloro-7-(4-fluorophenyl)-2-oxo-N-(5-phenylpentyl)-1,3-benzoxazole-3-carboxamide]

- IC50 [1]: 66 ± 15 nM
Compound: O=C(c1ccc(F)cc1)c1cccc2c1oc(=O)n2C(=O)NCCCCCc1ccccc1 [Example 9, 7-(4-fluorobenzoyl)-2-oxo-N-(5-phenylpentyl)-1,3-benzoxazole-3-carboxamide]
